{
  "source": "patent US8507251B2",
  "about": "“Medium and method for culturing Mycobacterium avium subspecies paratuberculosis” (priority 2009, dated 2013)",
  "key": {"MAP 303": {"tested_on": "MAP 303", "test": "radiometric 14CO2 BACTEC 460 growth culture, MAP 303", "format": "cell-based, Mycobacterium avium subspecies paratuberculosis", "conditions": "64 μg/ml"}, "M. avium ATCC 25291": {"tested_on": "M. avium ATCC 25291", "test": "radiometric 14CO2 BACTEC 460 growth culture, M. avium 25291", "format": "cell-based, M. avium subspecies avium", "conditions": "64 μg/ml"}, "[1]": {"tested_on": "Bacillus Callmette Guerin (BCG) M. bovis Karlson & Lessel (ATCC 19015)", "format": "cell-based"}, "MAP ATCC 19698": {"tested_on": "MAP ATCC 19698", "test": "radiometric 14CO2 BACTEC 460 growth culture, MAP 19698", "format": "cell-based, Mycobacterium avium subspecies paratuberculosis", "conditions": "64 μg/ml; value is a decrease"}, "M. avium": {"tested_on": "M. avium", "format": "cell-based, M. avium subspecies avium", "conditions": "4 μg/ml; value is a decrease"}, "[2]": {"tested_on": "eight mycobacterial strains"}},
  "data": [
    {"compound": "O=C(O)c1ccccc1O", "note": "[salicylic acid, reference compound]", "values": [
      {"measurement": "percent change from control cGI (% ΔcGI / % −ΔcGI)", "setting": "MAP 303", "result": 66, "unit": "%"},
      {"measurement": "percent change from control cGI (% ΔcGI / % −ΔcGI)", "setting": "M. avium ATCC 25291", "result": 104, "unit": "%"},
      {"measurement": "percent change from control cGI (% ΔcGI / % −ΔcGI)", "setting": "[1]; 64 μg/ml", "result": 95, "unit": "%"}
    ]},
    {"compound": "Nc1ccc(C(=O)O)c(O)c1", "note": "[PAS, para-amino salicylic acid, reference compound]", "values": [
      {"measurement": "percent decrease from control cGI (%−ΔcGI)", "setting": "MAP ATCC 19698", "result": 80, "unit": "%"},
      {"measurement": "percent decrease from control cGI (%−ΔcGI)", "setting": "MAP 303; value is a decrease", "result": 80, "unit": "%"},
      {"measurement": "percent decrease from control cGI (%−ΔcGI)", "setting": "[1]; 4 μg/ml", "result": "≥ 94", "unit": "%"},
      {"measurement": "percent decrease from control cGI (%−ΔcGI)", "setting": "M. avium", "result": "≥ 94", "unit": "%"}
    ]},
    {"compound": "CN1CCCC1c1cccnc1", "note": "(single isomer, unassigned; (-)) [(−) nicotine, nicotine]", "values": [
      {"measurement": "effect on growth (in words)", "setting": "[2]", "result": "neither enhancement nor an inhibitory effect"}
    ]},
    {"compound": "CN1CCCC1c1cccnc1", "note": "(single isomer, unassigned; (+)) [(+) nicotine, nicotine]", "values": [
      {"measurement": "effect on growth (in words)", "setting": "[2]", "result": "neither enhancement nor an inhibitory effect"}
    ]}
  ]
}
